From patent US9546139B2, “Pyridine carboxylic acid based compound used as a P2X1 and P2X3 receptor antagonist, a production method for the same and a composition comprising the same” (GWANGJU INSTITUTE OF SCIENCE AND TECHNOLOGY, priority 2010, dated 2017) come the findings set out here.

Like-named read-outs stand apart in the source and are kept apart here.

In one assay the target is T1, mouse P2X1 receptor (Mus musculus, UniProt P51576).
T1 construct: EST clones containing full-length cDNAs of mouse P2X1 (clone ID: 4189541) and human P2X7 receptor (clone ID: 5286944); host or cells: Xenopus oocytes (cRNA injected)
T1 sequence (P51576 1-399): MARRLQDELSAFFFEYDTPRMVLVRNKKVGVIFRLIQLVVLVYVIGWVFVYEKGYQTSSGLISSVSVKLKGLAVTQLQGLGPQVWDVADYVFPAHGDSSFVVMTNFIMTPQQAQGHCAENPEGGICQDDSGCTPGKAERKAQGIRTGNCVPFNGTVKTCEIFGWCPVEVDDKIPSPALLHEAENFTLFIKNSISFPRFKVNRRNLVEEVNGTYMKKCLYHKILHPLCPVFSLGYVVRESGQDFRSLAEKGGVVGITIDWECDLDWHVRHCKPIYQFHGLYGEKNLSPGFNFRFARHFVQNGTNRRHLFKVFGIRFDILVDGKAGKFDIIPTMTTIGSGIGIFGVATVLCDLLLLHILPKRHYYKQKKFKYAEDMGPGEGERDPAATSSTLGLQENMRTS
Nature of the assay: Two-electrode voltage clamp, ATP-induced ion current in Xenopus oocytes expressing mouse P2X1. Type of assay: cell-based. The note with it: for inhibition at 10 µM / inhibition at 0.1 µM: read-out: % inhibition mP2X1; for antagonistic activity, mouse P2X1 versus human P2X3: comparison of the two receptors. As for the experimental part:
1-1. Antagonistic Activity at Recombinant Mouse P2X1 and Human P2X3 Receptors
(§1) Xenopus oocytes were harvested and prepared with method as previously described in publications. Defolliculated oocytes were injected cytosolically with mouse P2X1 and human P2X3 receptor cRNA ([…], 1 μg/mL), respectively, incubated for 24 hrs at 18° C. in Barth's solution and kept for up to 12 days at 4° C. until used in electrophysiological experiments. ATP-activated membrane currents (Vh=−70 mV) were recorded from cRNA-injected oocytes using the twin-electrode voltage-clamp technique (Axoclamp 2B amplifier). Voltage recording (1-2 MΩ tip resistance) and current-recording microelectrodes (5 MΩ tip resistance) were filled with 3.0 M KCl. Oocytes were held in an electrophysiological chamber and superfused with Ringer's solution (5 mL/min, at 18° C.) containing (mM) NaCl, 110; KCl, 2.5; HEPES, 5; BaCl2, 1.8, adjusted to pH 7.5. ATP was superfused over the oocytes for 60-120s then washed out for a period of 20 min. For inhibition curves, data were normalized to the current evoked by ATP, at pH 7.5. Test substances were added for 20 min prior to ATP exposure; all peptides were tested for reversibility of their effects. The concentration required to inhibit the ATP response by 50% (IC50) was taken from Hill plots constructed using the formula: log(I/Imax−1), where I is the current evoked by ATP in the presence of an antagonist. Data are presented as mean±SEM (n=4) for the data from different batches of oocytes.
On the technique in general: Two-electrode voltage clamp holds a large cell at a set potential and records current.

A further assay concerns the target T2, human P2X3 receptor (Homo sapiens, UniProt P56373).
T2 construct: expressed in transfected cells; host or cells: Xenopus oocytes (cRNA injected); cDNA from the Max-Planck Institute laboratory (Dr. W. Stuhmer and Dr. F. Soto)
T2 sequence (P56373 1-397): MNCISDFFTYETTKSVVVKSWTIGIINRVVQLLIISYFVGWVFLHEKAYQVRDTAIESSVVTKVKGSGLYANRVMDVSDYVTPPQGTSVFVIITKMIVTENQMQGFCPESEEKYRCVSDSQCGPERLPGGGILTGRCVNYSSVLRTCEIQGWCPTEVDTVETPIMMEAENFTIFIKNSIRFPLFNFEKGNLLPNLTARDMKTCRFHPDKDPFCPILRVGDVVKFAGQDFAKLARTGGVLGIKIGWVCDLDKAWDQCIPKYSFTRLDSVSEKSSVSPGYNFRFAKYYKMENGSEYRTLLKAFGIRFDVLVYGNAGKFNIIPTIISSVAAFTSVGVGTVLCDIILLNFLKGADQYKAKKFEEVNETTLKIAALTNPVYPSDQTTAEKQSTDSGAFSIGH
Nature of the assay: Two-electrode voltage clamp, ATP-induced ion current in Xenopus oocytes expressing human P2X3. The format is cell-based. The conditions noted are these: for inhibition at 10 µM / inhibition at 0.1 µM: read-out: % inhibition hP2X3; for inhibition at 0.1 µM: 100 nM compound. As for the experimental part:
Antagonistic Activity at Recombinant Mouse P2X1 and Human P2X3 Receptors
as §1

The mark [1] stands for this setting: Table 1, 10 μM compound, ion current induced by 2 μM ATP, mean ± SEM, n = 4.
Where [2] appears, read: concentration-inhibitory curve, 2 μM ATP (FIG. 1B, FIG. 2A).
The mark [3] stands for this setting: concentration-inhibitory curve, 2 μM ATP (FIG. 1C, FIG. 2B).
The mark [4] stands for this setting: Table 1, 100 nM compound, ion current induced by 2 μM ATP, mean ± SEM, n = 4.
Setting [5] is: concentration-inhibitory curve, 2 μM ATP, read-out: IC50 value (FIG. 1B).
Setting [6] is: concentration-response curve, 2 μM ATP, mean of four observations, read-out: IC50 value.
The mark [7] stands for this setting: Table 1, ion current induced by 2 μM ATP, mean ± SEM, n = 4.
The mark [8] stands for this setting: concentration-inhibitory curve, 2 μM ATP, read-out: IC50 value (FIG. 1C).

On to `Cc1ncc(CN(CCC(=O)O)Cc2ccccc2)c(C=O)c1O` [Compound 22, 3-(Benzyl((4-formyl-5-hydroxy-6-methylpyridin-3-yl)methyl)amino)propanoic acid], for which the “% inhibition mP2X1” value on mouse P2X1 receptor (setting [1]) was “inactive”. The “% inhibition hP2X3” value on human P2X3 receptor (setting [1]) was “inactive”.

Consider `Cc1ncc(C=CC(=O)O)c(C=O)c1O` [Compound 17, 3-(4-Formyl-5-hydroxy-6-methylpyridin-3-yl)acrylic acid], for which the inhibition at 10 µM on mouse P2X1 receptor (setting [1]) is 7.4 ± 1.9%; on human P2X3 receptor (setting [1]), 9.3 ± 2.3%.

Turning to `Cc1nc(/N=N/c2ccc(C(=O)O)cc2)c(COP(=O)(O)O)c(C=O)c1O` [MRS2159, reference compound], the Hill coefficient on mouse P2X1 receptor (setting [2]) is given as −1.13±0.20.

On to `O=C(O)c1cc(C(=O)O)c(C(=O)N(Cc2cccc(Oc3ccccc3)c2)[C@H]2CCCc3ccccc32)cc1C(=O)O` [A-317491, reference compound], for which, on human P2X3 receptor (setting [3]), the Hill coefficient was −0.68±0.18.

For the compound `Cc1nc(N=Nc2cc(S(=O)(=O)O)ccc2S(=O)(=O)O)c(CCC(=O)O)c(C=O)c1O` [Compound 24, 3-(2-((2,5-Disulfophenyl)diazenyl)-4-formyl-5-hydroxy-6-methylpyridin-3-yl)propanoic acid], at mouse P2X1 receptor (FIG. 1A, 2 μM ATP, two concentrations), the “inhibitory activity to the ATP-induced ion current” value was “concentration-dependent inhibitory activity”. The results for the inhibition at 0.1 µM at mouse P2X1 receptor (setting [4]) and at human P2X3 receptor (setting [7]) were 58.6 ± 4.5% and 40.1 ± 8.4%, respectively. For the same compound, the Hill coefficient on mouse P2X1 receptor (setting [2]) was −1.13±0.40; on human P2X3 receptor (setting [3]), −1.18±0.25. For the same compound, the IC50 on mouse P2X1 receptor (setting [5]) was 0.0705 ± 0.00272 µM; at mouse P2X1 receptor (setting [6]), 0.07 µM; at human P2X3 receptor (setting [8]), 0.105 ± 0.0175 µM; at human P2X3 receptor (setting [6]) it was 0.105 µM.

In the case of `Cc1nc(N=Nc2cc(S(=O)(=O)O)ccc2S(=O)(=O)O)c(COP(=O)(O)O)c(C=O)c1O` [Compound 3, pyridoxal-phosphate-6-azophenyl-2′,5′-disulfonic acid, reference compound], at mouse P2X1 receptor, the “% inhibition mP2X1” value is given as 62.4 ± 3.1% and the Hill coefficient is given as −1.09±0.13. Moreover, the IC50 on mouse P2X1 receptor (read-out: IC50 value (FIG. 1B)) was found to be 0.0307 ± 0.00512 µM. At human P2X3 receptor, the “% inhibition hP2X3” value worked out at 48.3 ± 5.6% and the Hill coefficient was −1.11±0.27. Also, the 50% inhibitory concentration (IC50) at human P2X3 receptor (read-out: IC50 value (FIG. 1C)) was 0.0962 ± 0.021 µM.

Turning to `Cc1ncc(C=CC(=O)O)c(C(=O)O)c1O` [Compound 18, 5-(2-Carboxyvinyl)-3-hydroxy-2-methylisonicotinic acid], the “% inhibition mP2X1” value at mouse P2X1 receptor (setting [1]) is “inactive”. At human P2X3 receptor (setting [1]), the “% inhibition hP2X3” value is “inactive”.

Take `Cc1nc(N=Nc2ccc(C(=O)O)cc2)c(CCC(=O)O)c(C(=O)O)c1O` [Compound 29, 3-(2-carboxyethyl)-2-((4-carboxyphenyl)diazenyl)-5-hydroxy-6-methy lisonicotinic acid]: the figures for the inhibition at 0.1 µM on mouse P2X1 receptor (setting [4]) and at human P2X3 receptor (setting [7]) were 51.7 ± 7.4% and 25.7 ± 6.9%, respectively. Further, on mouse P2X1 receptor, the “antagonistic activity, mouse P2X1 versus human P2X3” value was “more powerful antagonistic activity to mouse P2X1 than human P2X3 receptor”.

Consider `Cc1ncc(CN(CCC(=O)O)Cc2ccccc2)c(C(=O)O)c1O` [Compound 23, 5-((Benzyl(2-carboxyethyl)amino)methyl)-3-hydroxy-2-methylisonicotinic acid], for which the “% inhibition mP2X1” value on mouse P2X1 receptor (setting [1]) is “inactive”. Also, the “% inhibition hP2X3” value at human P2X3 receptor (setting [1]) was “inactive”.

Turning to `Cc1ncc(CCC(=O)O)c(C(=O)O)c1O` [Compound 14, 5-(2-Carboxyethyl)-3-hydroxy-2-methyl isonicotinic acid], the figures for the inhibition at 10 µM at mouse P2X1 receptor (setting [1]) and on human P2X3 receptor (setting [1]) were 14.8 ± 1.7% and 15.2 ± 7.7%, respectively.

In the case of `Cc1nc(N=Nc2ccc(C(=O)O)cc2)c(CCC(=O)O)c(C=O)c1O` [Compound 28, 4-((3-(2-carboxyethyl)-4-formyl-5-hydroxy-6-methylpyridin-2-yl)diazenyl)benzoic acid], the results for the inhibition at 0.1 µM at mouse P2X1 receptor (setting [4]) and at human P2X3 receptor (setting [7]) were 48.5 ± 9.5% and 56.3 ± 8.8%, respectively. Besides, the Hill coefficient at mouse P2X1 receptor (setting [2]) is recorded as −1.20±0.45; on human P2X3 receptor (setting [3]), −1.08±0.02. For the same compound, the half-maximal inhibitory concentration (IC50) worked out at 0.13 ± 0.0136 µM at mouse P2X1 receptor (setting [5]), 0.13 µM at mouse P2X1 receptor (setting [6]), 0.0798 ± 0.00121 µM at human P2X3 receptor (setting [8]) and 0.08 µM on human P2X3 receptor (setting [6]).

Take `Cc1nc(N=Nc2ccc(S(=O)(=O)O)cc2)c(CCC(=O)O)c(C=O)c1O` [Compound 26, 3-(4-Formyl-5-hydroxy-6-methyl-2-((4-sulfophenyl)diazenyl)pyridin-3-yl)propanoic acid]: the inhibition at 0.1 µM on mouse P2X1 receptor (setting [4]) came out at 41.8 ± 9.8%; at human P2X3 receptor (setting [7]), 46.5 ± 11.2%.

For the compound `Cc1ncc(CCC(=O)O)c(C=O)c1O` [Compound 13, 3-(4-formyl-5-hydroxy-6-methylpyridin-3-yl) propanoic acid], the figures for the inhibition at 10 µM on mouse P2X1 receptor (setting [1]) and at human P2X3 receptor (setting [1]) were 19.5 ± 5.1% and 22.3 ± 8.1%, respectively.

Take `Cc1nc(N=Nc2ccc(S(=O)(=O)O)cc2)c(CCC(=O)O)c(C(=O)O)c1O` [Compound 27, 3-(2-carboxyethyl)-5-hydroxy-6-methyl-2-((4-sulfophenyl)diazenyl)isonicotinic acid]: the inhibition at 0.1 µM on mouse P2X1 receptor (setting [4]) amounted to 57.6 ± 8.8%; on human P2X3 receptor (setting [7]) it was 37.6 ± 6.9%. Moreover, the “antagonistic activity, mouse P2X1 versus human P2X3” value at mouse P2X1 receptor is “more powerful antagonistic activity to mouse P2X1 than human P2X3 receptor”.

`Cc1nc(N=Nc2cc(S(=O)(=O)O)ccc2S(=O)(=O)O)c(CCC(=O)O)c(C(=O)O)c1O` [Compound 25, 3-(2-Carboxyethyl)-2-((2,5-disulfophenyl)diazenyl)-5-hydroxy-6-methylisonicotinic acid]: at mouse P2X1 receptor (setting [4]), the “% inhibition mP2X1” value was found to be 60.2 ± 4.9% and the inhibition at 0.1 µM was 60%. Moreover, on mouse P2X1 receptor, the “antagonistic activity, mouse P2X1 versus human P2X3” value was “more powerful antagonistic activity to mouse P2X1 than human P2X3 receptor”. Also, on human P2X3 receptor (setting [7]), the inhibition at 0.1 µM is 45.7 ± 10.8%.

The inhibition is the share of the control response that was lost under treatment. Broadly, the Hill coefficient is a measure of the steepness of the concentration-response curve. One may read the IC50 as the midpoint of a concentration-inhibition curve.
